Data published in US10294202B2, “Pyrrolidinones as herbicides” (FMC Corporation, priority 2013, dated 2019).

What was measured:
[1] = test system: pigweed; test: Test A pre-/postemergence herbicide test; format: in vivo, Amaranthus retroflexus
Outline: (§1)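 Planted in loam–sand blend; treated the same day preemergence by directed soil spray, while separately grown plants at one- to two-leaf stage got postemergence spray. Compared visually with untreated controls after approximately 10 days; 100 means complete control.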

[2] = test system: sedge, umbrella; test: Test B flooded paddy test; format: in vivo, Cyperus difformis; conditions: 500 g ai/ha, Flood; scale of 0 to 100 where 0 is no effect and 100 is complete control
Outline: (§2)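 Plants were grown to the 2-leaf stage, then pots were flooded to 3 cm above the soil and compound was applied directly into the paddy water, with that depth held throughout. After 13 to 15 days in a greenhouse, injury was rated visually against untreated controls on a 0 to 100 scale (100 = complete control).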

[3] = test system: rice; test: Test B flooded paddy test; format: in vivo, Oryza sativa; conditions: 500 g ai/ha, Flood; scale of 0 to 100 where 0 is no effect and 100 is complete control
Outline: as §2

[4] = test system: giant foxtail; test: Test A pre-/postemergence herbicide test; format: in vivo, Setaria faberii
Outline: as §1

[5] = test system: ryegrass, Italian; test: Test A pre-/postemergence herbicide test; format: in vivo, Lolium multiflorum
Outline: as §1

[6] = test system: barnyardgrass; test: Test A pre-/postemergence herbicide test; format: in vivo, Echinochloa crus-galli
Outline: as §1

[7] = test system: blackgrass; test: Test A postemergence herbicide test; format: in vivo, Alopecurus myosuroides
Outline: (§3)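 Ratings compare treated with untreated plants roughly 10 days after a postemergence application made at the one- to two-leaf stage. Scoring uses 0–100, where 0 means no effect and 100 complete control.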

[8] = test system: barnyardgrass; test: Test B flooded paddy test; format: in vivo, Echinochloa crus-galli; conditions: 500 g ai/ha, Flood; scale of 0 to 100 where 0 is no effect and 100 is complete control
Outline: as §2

[9] = test system: galium; test: Test A postemergence herbicide test; format: in vivo, Galium aparine
Outline: as §3

[10] = test system: ragweed; test: Test A pre-/postemergence herbicide test; format: in vivo, Ambrosia elatior
Outline: as §1

[11] = test system: kochia; test: Test A pre-/postemergence herbicide test; format: in vivo, Kochia scoparia
Outline: as §1

[12] = test system: wheat; test: Test A pre-/postemergence herbicide test; format: in vivo, Triticum aestivum; conditions: Postemergence
Outline: as §1

[13] = test system: ducksalad; test: Test B flooded paddy test; format: in vivo, Heteranthera limosa; conditions: 500 g ai/ha, Flood; scale of 0 to 100 where 0 is no effect and 100 is complete control
Outline: as §2

[14] = test system: corn; test: Test A pre-/postemergence herbicide test; format: in vivo, Zea mays; conditions: Postemergence
Outline: as §1

[15] = Postemergence, 125 g ai/ha, visual rating on 0 to 100 scale (0 no effect, 100 complete control), approx. 10 days
[16] = Postemergence, 500 g ai/ha, 0 to 100 scale (0 no effect, 100 complete control)
[17] = Preemergence, 125 g ai/ha, 0 to 100 scale where 0 is no effect and 100 is complete control
[18] = preemergence, 500 g ai/ha, 0 to 100 scale, 0 is no effect and 100 is complete control
[19] = 125 g ai/ha, visual rating on 0 to 100 scale (0 no effect, 100 complete control), approx. 10 days
[20] = 500 g ai/ha, 0 to 100 scale (0 no effect, 100 complete control)
[21] = 125 g ai/ha, visual rating, 0 to 100 scale, 0 no effect, 100 complete control, approximately 10 days, preemergence
[22] = Postemergence, 125 g ai/ha, 0 to 100 scale, 0 is no effect, 100 is complete control
[23] = 125 g ai/ha, 0 to 100 scale, 0 is no effect, 100 is complete control

O=C1NCC(c2cc3ccccc3s2)C1C(=O)Nc1cccc(F)c1F (stereo not drawn) [Compound 296]
Plant response rating, Pigweed [1, 15]: 0 | Plant response rating, Pigweed [1, 16]: 0 | Plant response rating, Pigweed [1, 17]: 0 | Plant response rating, Pigweed [1, 18]: 0 | Plant response rating, Sedge, Umbrella [2]: 0 | Plant response rating, Rice [3]: 0 | Plant response rating, Foxtail, Giant [4, 15]: 0 | Plant response rating, Foxtail, Giant [4, 16]: 0 | Plant response rating, Foxtail, Giant [4, 17]: 0 | Plant response rating, Foxtail, Giant [4, 18]: 0 | Plant response rating, Ryegrass, Italian [5, 15]: 0 | Plant response rating, Ryegrass, Italian [5, 16]: 0 | Plant response rating, Ryegrass, Italian [5, 17]: 0 | Ryegrass, Italian plant response rating ([5]; Preemergence, 500 g ai/ha, visual rating on 0 to 100 scale (0 no effect, 100 complete control)): 0 | Plant response rating, Barnyardgrass [6, 15]: 0 | Plant response rating, Barnyardgrass [6, 16]: 20 | Plant response rating, Barnyardgrass [6, 17]: 0 | Plant response rating, Barnyardgrass [6, 18]: 0 | Plant response rating, Blackgrass [7, 19]: 0 | Plant response rating, Blackgrass [7, 20]: 0 | Plant response rating, Barnyardgrass [8]: 30 | Plant response rating, Galium [9, 19]: 0 | Plant response rating, Galium [9, 20]: 0 | Plant response rating, Ragweed [10, 15]: 0 | Plant response rating, Ragweed [10, 16]: 0 | Plant response rating, Ragweed [10, 17]: 0 | Plant response rating, Ragweed [10, 18]: 0 | Plant response rating, Kochia [11, 15]: 0 | Plant response rating, Kochia [11, 16]: 0 | Plant response rating, Kochia [11, 17]: 0 | Plant response rating, Kochia [11, 18]: 0 | Plant response rating, Wheat [12, 19]: 0 | Plant response rating, Wheat [12, 20]: 0 | Plant response rating, Ducksalad [13]: 60 | Plant response rating, Corn [14, 19]: 0 | Plant response rating, Corn [14, 20]: 0

O=C1NCC(c2cccc(OC(F)F)c2)C1C(=O)Nc1ccccc1C(F)(F)F (stereo not drawn) [Compound 222]
Plant response rating, Pigweed [1, 21]: 0 | Plant response rating, Pigweed [1, 22]: 0 | Pigweed plant response rating (0 to 100 scale, 0 is no effect, 100 is complete control) ([1]; Postemergence, 500 g ai/ha): 20 | Plant response rating, Pigweed [1, 18]: 30 | Plant response rating, Sedge, Umbrella [2]: 0 | Plant response rating, Rice [3]: 0 | Plant response rating, Foxtail, Giant [4, 21]: 90 | Plant response rating, Foxtail, Giant [4, 22]: 80 | Foxtail, Giant plant response rating (0 to 100 scale, 0 is no effect, 100 is complete control) ([4]; Postemergence, 500 g ai/ha): 90 | Plant response rating, Foxtail, Giant [4, 18]: 90 | Plant response rating, Ryegrass, Italian [5, 21]: 20 | Plant response rating, Ryegrass, Italian [5, 22]: 20 | Ryegrass, Italian plant response rating (0 to 100 scale, 0 is no effect, 100 is complete control) ([5]; Postemergence, 500 g ai/ha): 30 | Plant response rating, Ryegrass, Italian [5, 18]: 50 | Plant response rating, Barnyardgrass [6, 21]: 70 | Plant response rating, Barnyardgrass [6, 22]: 70 | Barnyardgrass plant response rating (0 to 100 scale, 0 is no effect, 100 is complete control) ([6]; Postemergence, 500 g ai/ha): 90 | Plant response rating, Barnyardgrass [6, 18]: 90 | Plant response rating, Blackgrass [7, 23]: 30 | Blackgrass plant response rating (0 to 100 scale, 0 is no effect, 100 is complete control) ([7]; 500 g ai/ha): 60 | Plant response rating, Barnyardgrass [8]: 60 | Plant response rating, Galium [9, 23]: 30 | Galium plant response rating (0 to 100 scale, 0 is no effect, 100 is complete control) ([9]; 500 g ai/ha): 60 | Plant response rating, Ragweed [10, 21]: 0 | Plant response rating, Ragweed [10, 22]: 0 | Ragweed plant response rating (0 to 100 scale, 0 is no effect, 100 is complete control) ([10]; Postemergence, 500 g ai/ha): 40 | Plant response rating, Ragweed [10, 18]: 20 | Plant response rating, Kochia [11, 21]: 0 | Plant response rating, Kochia [11, 22]: 0 | Kochia plant response rating (0 to 100 scale, 0 is no effect, 100 is complete control) ([11]; Postemergence, 500 g ai/ha): 40 | Plant response rating, Kochia [11, 18]: 50 | Plant response rating, Wheat [12, 23]: 20 | Wheat plant response rating (0 to 100 scale, 0 is no effect, 100 is complete control) ([12]; 500 g ai/ha): 30 | Plant response rating, Ducksalad [13]: 100 | Plant response rating, Corn [14, 23]: 20 | Corn plant response rating (0 to 100 scale, 0 is no effect, 100 is complete control) ([14]; 500 g ai/ha): 60
